ChEMBL document CHEMBL1144593, “Bicyclic carbamates as inhibitors of papain-like cathepsin proteases” (Bioorg Med Chem Lett, 2007)
Active and inactive are the calls of the source. The rule behind the calls is not given here.

Experiments:
[1] = molecular target: Prothrombin (Homo sapiens) (UniProt P00734); test: Inhibition of thrombin
Cathepsin L2 = molecular target: T1, Cathepsin L2 (Homo sapiens, UniProt O60911); test: Inhibition of human recombinant cathepsin V
T1 sequence (O60911 whole entry): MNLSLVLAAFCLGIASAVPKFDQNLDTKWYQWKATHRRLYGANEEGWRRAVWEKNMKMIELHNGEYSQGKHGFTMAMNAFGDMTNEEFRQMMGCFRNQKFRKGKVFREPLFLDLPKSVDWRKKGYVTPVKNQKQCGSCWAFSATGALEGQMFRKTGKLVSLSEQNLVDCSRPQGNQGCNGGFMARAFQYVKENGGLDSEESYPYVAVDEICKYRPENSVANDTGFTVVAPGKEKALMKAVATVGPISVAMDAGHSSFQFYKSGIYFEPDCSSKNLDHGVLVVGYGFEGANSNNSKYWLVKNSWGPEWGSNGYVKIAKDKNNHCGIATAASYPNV

Procathepsin L = Procathepsin L (Homo sapiens, UniProt P07711); test: Inhibition of human recombinant cathepsin L
Chain of Procathepsin L (P07711 whole entry): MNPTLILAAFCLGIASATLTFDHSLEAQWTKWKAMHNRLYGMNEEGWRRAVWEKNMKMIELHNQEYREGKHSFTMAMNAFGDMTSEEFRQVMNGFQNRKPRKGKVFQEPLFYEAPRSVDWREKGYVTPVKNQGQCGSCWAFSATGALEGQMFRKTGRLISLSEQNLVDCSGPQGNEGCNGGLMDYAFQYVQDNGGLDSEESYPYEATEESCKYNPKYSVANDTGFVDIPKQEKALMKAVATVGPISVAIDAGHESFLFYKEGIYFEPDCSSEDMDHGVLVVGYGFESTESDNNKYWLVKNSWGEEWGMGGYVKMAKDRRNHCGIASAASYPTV

Cathepsin B = Cathepsin B (Homo sapiens, UniProt P07858); test: Inhibition of human recombinant cathepsin B
Cathepsin F = molecular target: T2, Cathepsin F (Homo sapiens, UniProt Q9UBX1); test: Inhibition of human recombinant cathepsin F
T2 sequence (Q9UBX1 whole entry): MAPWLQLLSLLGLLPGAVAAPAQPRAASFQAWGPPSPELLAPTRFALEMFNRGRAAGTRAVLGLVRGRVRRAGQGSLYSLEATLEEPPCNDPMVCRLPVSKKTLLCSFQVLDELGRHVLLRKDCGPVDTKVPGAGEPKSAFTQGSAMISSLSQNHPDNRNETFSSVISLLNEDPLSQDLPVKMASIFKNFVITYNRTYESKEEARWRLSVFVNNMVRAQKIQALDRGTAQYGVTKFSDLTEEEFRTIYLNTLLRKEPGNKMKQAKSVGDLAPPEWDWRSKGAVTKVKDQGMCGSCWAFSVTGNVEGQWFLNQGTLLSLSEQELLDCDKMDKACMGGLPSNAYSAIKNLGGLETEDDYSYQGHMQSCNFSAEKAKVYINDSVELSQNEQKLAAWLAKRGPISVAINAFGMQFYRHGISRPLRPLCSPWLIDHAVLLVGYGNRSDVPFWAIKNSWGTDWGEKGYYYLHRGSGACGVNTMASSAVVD

Cathepsin K = molecular target: T3, Cathepsin K (Homo sapiens, UniProt P43235); test: Inhibition of human recombinant cathepsin K
T3 sequence (P43235 whole entry): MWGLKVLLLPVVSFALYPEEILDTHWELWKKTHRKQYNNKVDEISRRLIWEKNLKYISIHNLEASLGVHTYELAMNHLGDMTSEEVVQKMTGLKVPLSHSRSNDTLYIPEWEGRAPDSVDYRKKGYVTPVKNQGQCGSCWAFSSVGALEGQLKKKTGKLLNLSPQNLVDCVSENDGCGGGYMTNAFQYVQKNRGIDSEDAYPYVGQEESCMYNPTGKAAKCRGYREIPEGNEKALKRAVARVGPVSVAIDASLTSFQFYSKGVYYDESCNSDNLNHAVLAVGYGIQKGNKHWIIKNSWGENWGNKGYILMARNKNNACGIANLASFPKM

Dipeptidyl peptidase 1 = Dipeptidyl peptidase 1 (Homo sapiens, UniProt P53634); test: Inhibition of human recombinant cathepsin C
Chain of Dipeptidyl peptidase 1 (P53634 25-134 limits assumed): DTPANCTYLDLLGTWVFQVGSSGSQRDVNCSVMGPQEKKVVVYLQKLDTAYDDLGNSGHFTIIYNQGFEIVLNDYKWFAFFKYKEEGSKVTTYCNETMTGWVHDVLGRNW
Chain of Dipeptidyl peptidase 1 (P53634 231-394 limits assumed): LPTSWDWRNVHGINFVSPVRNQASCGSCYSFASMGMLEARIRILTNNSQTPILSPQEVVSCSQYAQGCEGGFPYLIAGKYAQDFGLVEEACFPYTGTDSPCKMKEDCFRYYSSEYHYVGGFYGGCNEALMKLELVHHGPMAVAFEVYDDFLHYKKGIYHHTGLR
Chain of Dipeptidyl peptidase 1 (P53634 395-463 limits assumed): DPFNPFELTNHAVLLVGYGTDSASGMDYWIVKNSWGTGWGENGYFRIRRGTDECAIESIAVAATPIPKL

Cathepsin S = Cathepsin S (Homo sapiens, UniProt P25774); test: Inhibition of human recombinant cathepsin S
Chain of Cathepsin S (P25774 whole entry): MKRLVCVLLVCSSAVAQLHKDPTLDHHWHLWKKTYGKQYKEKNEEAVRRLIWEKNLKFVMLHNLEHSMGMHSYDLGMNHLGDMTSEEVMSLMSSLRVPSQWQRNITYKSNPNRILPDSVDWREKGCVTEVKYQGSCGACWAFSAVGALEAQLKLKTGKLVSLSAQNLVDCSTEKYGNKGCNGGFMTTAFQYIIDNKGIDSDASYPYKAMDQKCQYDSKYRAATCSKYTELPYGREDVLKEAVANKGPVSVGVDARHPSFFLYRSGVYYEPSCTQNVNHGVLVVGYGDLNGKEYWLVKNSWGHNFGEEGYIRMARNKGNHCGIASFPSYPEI

Trypsin (Homo sapiens) = Trypsin (Homo sapiens) (UniProt P07477+P07478+P35030); test: Inhibition of trypsin; assay type: protein assay
Pro-cathepsin H = molecular target: T4, Pro-cathepsin H (Homo sapiens, UniProt P09668); test: Inhibition of human recombinant cathepsin H
T4 sequence (P09668 whole entry): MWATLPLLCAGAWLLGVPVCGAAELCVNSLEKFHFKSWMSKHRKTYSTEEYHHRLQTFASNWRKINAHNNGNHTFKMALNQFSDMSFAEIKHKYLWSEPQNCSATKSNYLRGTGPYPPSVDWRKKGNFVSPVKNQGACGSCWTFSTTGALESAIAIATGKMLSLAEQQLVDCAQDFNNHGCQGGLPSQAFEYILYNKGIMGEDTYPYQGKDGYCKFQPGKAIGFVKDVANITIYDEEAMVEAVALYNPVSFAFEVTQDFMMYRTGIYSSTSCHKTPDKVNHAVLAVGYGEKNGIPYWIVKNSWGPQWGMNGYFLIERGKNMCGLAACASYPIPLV

Structure (SMILES)	Activity [1]	IC50 (Cathepsin L2) [µM]	IC50 (Procathepsin L) [µM]	IC50 (Cathepsin B) [µM]	IC50 (Cathepsin F) [µM]	IC50 (Cathepsin K) [µM]	IC50 (Dipeptidyl peptidase 1) [µM]	IC50 (Cathepsin S) [µM]	Activity (Trypsin (Homo sapiens))	IC50 (Pro-cathepsin H) [µM]
Cc1cccc(O[C@@H]2CCNC[C@@H]2O)c1C	inactive	> 100	> 100	> 100	> 100	> 100	> 100	> 100	inactive	> 100
O=C1O[C@@H]2CN1CC[C@@H]2OCc1ccccc1	inactive	1.29	0.263	0.002	3.76	0.511	0.403	0.174	inactive	> 10
Cc1cccc(OCC2CN(C)C(=O)O2)c1C (stereo not given)	inactive	> 100	> 100	> 100	> 100	> 100	> 100	> 100	inactive	> 100
Cc1cccc(O[C@@H]2CCNC[C@H]2O)c1C	inactive	> 100	> 100	> 100	> 100	> 100	> 100	> 100	inactive	> 100
S=C1O[C@@H]2CN1CC[C@@H]2Oc1ccccc1	inactive	5.17	0.994	0.519	> 10	1.83	0.606	0.696	inactive	> 100
Cc1cccc(O[C@H]2CCN3C[C@@H]2OC3=O)c1C (racemic)	inactive	3.32	1.27	0.046	5.91	2.44	1.73	0.473	inactive	> 30
O=C1O[C@H]2CN1CC[C@@H]2Br	inactive	> 10	5.82	0.158	> 10	> 30	> 10	4.55	inactive	> 100

The next compounds have a lower IC50 (Cathepsin L2) than those just listed; values first:

Activity [1]	IC50 (Cathepsin L2) [µM]	IC50 (Procathepsin L) [µM]	IC50 (Cathepsin B) [µM]	IC50 (Cathepsin F) [µM]	IC50 (Cathepsin K) [µM]	IC50 (Dipeptidyl peptidase 1) [µM]	IC50 (Cathepsin S) [µM]	Activity (Trypsin (Homo sapiens))	IC50 (Pro-cathepsin H) [µM]	Structure (SMILES)
inactive	0.158	0.026	0.005	0.487	0.104	0.029	0.017	inactive	6.59	O=C1O[C@@H]2CN1CC[C@@H]2Oc1ccccc1
inactive	0.894	0.23	0.008	1.83	1.27	0.191	0.298	inactive	> 10	CC(C)CO[C@H]1CCN2C[C@H]1OC2=O
inactive	0.131	0.022	0.001	0.331	0.038	0.018	0.016	inactive	2.65	Cc1cccc(O[C@H]2CCN3C[C@H]2OC3=O)c1C (relative stereo)
